# Experiment: Transdermal delivery of melatonin: plasma level of melatonin after applying composition to skin of a subject
# Conditions: 0.3 mL of 7% helper ester + 1% melatonin in water on skin of the back (20 cm×20 cm); control 2.0 ml of […] melatonin suspension in water; plasma level at 1, 2, 4, 8 hours
row,Structure (SMILES),transdermal delivery of melatonin compared to control composition (A)
1,CC(C)OC(=O)[C@@H](N)Cc1ccc(O)cc1 [Tyrosine isopropyl ester],more efficient and effective transdermal delivery of melatonin
2,CCCCCOC(=O)[C@@H](N)Cc1ccc(O)cc1 [Tyrosine pentyl ester],more efficient and effective transdermal delivery of melatonin
3,CCCOC(=O)[C@@H](N)Cc1ccc(O)cc1 [Tyrosine propyl ester],more efficient and effective transdermal delivery of melatonin
